# Data taken from US7151180B2, “Potassium channel modulators” (Bristol-Myers Squibb Company, priority 2003, dated 2006).
# Key:
# [1] = system: cloned mammalian (mSlo or hSlo) BK channels expressed in Xenopus oocytes; test: Assay for BK channel openers: two-electrode voltage clamp of BK-mediated outward current in Xenopus oocytes; format: cell-based; conditions: at 20 μM; percent increase over BK current in controls; voltage step to +140 mV; 5–10 oocytes
# Experimental: The ability of the compounds of the invention to open BK channels and increase whole-cell outward (K^+) BK-mediated currents was assessed under voltage-clamp conditions by determining their ability to increase cloned mammalian (mSlo or hSlo) BK-mediated outward current heterologously expressed in Xenopus oocytes [Butler, A., et al., Science 1993, 261, 221–224; Dworetzky, S. I., et al., Mol. Brain Res. 1994, 27, 189–193; Gribkoff, V. K., et al., Mol. Phannacol. 1996, 50, 206–217]. The two BK constructs employed represent nearly structurally identical homologous proteins, and have proven to be pharmacologically indistinguishable in our tests. To isolate BK current from native (background, non-BK) current, the specific and potent BK channel-blocking toxin iberiotoxin (IBTX) [Galvez, A., et al., J. Biol. Chem. 1990, 265, 11083–11090] was employed at a supramaximal concentration, e.g., 50–100 nanomolar (“nM”). The relative contribution of BK channel-mediated current to total outward current was determined by subtraction of the current remaining in the presence of IBTX (non-BK current) from the current profiles obtained in all other experimental conditions (control, drug, and wash) [Gribkoff, V. K. et al., Mol. Pharmacol. 1996, 50, 206–217]. […] All compounds were tested in 5–10 oocytes and are reported at the indicated concentration of 20 micromolar (“μM”) (or as otherwise indicated); the effect of the selected compounds of the invention on BK current was expressed as the percent of control IBTX-sensitive current at a single transmembrane voltage (+140 mV) and is listed in Table 1.Recordings were accomplished using standard two-electrode voltage clamp techniques [Stuhmer, W., et al., Methods in Enzymology, 1992, 207, 319–339]; voltage-clamp protocols consisted of 500–750 milliseconds (“ms”) duration step depolarizations, from a holding potential of −60 mV, to a final voltage up to +140 mV in 20 mV steps. The experimental media (modified Barth's solution) consisted of millimolar (“mM”): NaCl (88), NaHCO3 (2.4), KCl (1.0), HEPES (10), MgSO4 (0.82), Ca(NO3)2 (0.33), CaCl2 (0.41); pH 7.5.
# [2] = system: rat small intestine tissue; test: Relaxation of rat small intestine (ileum) strips (nifedipine-sensitive force); conditions: integral of nifedipine-sensitive force, 30 min post-compound
# Excerpt: The ability of the compounds of the invention to relax rat small intestine tissue as a model for the treatment of irritable bowel syndrome is described as follows. Male rats (Harlan, Sprague Dawley, 250–350 g) were sacrificed by decapitation. A portion of small intestine (ileum) was removed and the attached connective tissues and intestinal contents removed. The ileum was cut into segments of ≦1 cm in length. The segments were mounted longitudinally between fixed hooks in organ baths containing warm (37° C.) physiological salt solution (composition in mM: NaCl 118.4,KCl 4.7,KH2PO4 1.2,MgSO4 1.2,CaCl2 1.8,Glucose 10.1, NaHCO3 25; gassed with 95% O2/5% CO2, pH 7.4). A stable tension of ˜1.5 g was maintained in the tissue segments during the equilibration period of 45 minutes. Changes in muscle tension were measured with isometric force transducers (Grass, FT-03C) and recorded using AcqKnowledge data acquisition system (AcqKnowledge for MP100WS, Biopac Systems Inc., Goleta, Calif.). Compound or vehicle was added in the baths for 30 minutes. “Zero” active force was established at the end of the experiment using nifedipine (20 μM). The effects of compounds or vehicle on force was determined by measuring the integral of nifedipine-sensitive force (including resting tone and spontaneous contractions) pre- and 30 min post-compound (or vehicle) addition. Results are expressed as the percentage inhibition of force. DMSO vehicle inhibited force (integral) by −0.6±3.0% (n=25).
# [3] = system: rabbit corpus cavernosum tissue; test: Relaxation of rabbit corpus cavernosum strips (phenylephrine-induced force); conditions: Oryctolagus cuniculus, inhibition of phenylephrine (3 μM)-induced force compared to vehicle control, read-out: % Inhibition of force (RCC strips)
# Experimental: The ability of the compounds of the invention to relax rabbit corpus cavernosum tissue as a model for the treatment of erectile dysfunction is described as follows. New Zealand white rabbits (3.4–3.7 kg) were euthanized by sodium pentobarbital (100 mg/kg) overdose. The penis from each animal was rapidly removed and immersed in a cold oxygenated modified Krebs Henseleit bicarbonate buffer. The penis' outer tunica was removed and the corpus cavernosum smooth muscle obtained and cut into strips approximately 3–5 mm long. The strips were suspended in tissue baths containing physiological salt solution (see above), and allowed to equilibrate for at least one hour under resting tension of 1.0 gram. Isometric force was measured as described above. Tissue strips were stimulated with the α-agonist phenylephrine (3 μM) and allowed to reach a steady level of force prior to the addition of test compounds. The results are expressed as the percentage inhibition of phenylephrine-induced force as compared to vehicle control.
Structure (SMILES),% MaxiK opening [1] [%],% Inhibition of force (RSI strips) [2] [%],inhibition [3] [%],melting point [°C]
"Nc1ccc(Sc2c(-c3cc(Cl)ccc3O)c3cc(C(F)(F)F)ccc3[nH]c2=O)cc1 [Example 1, 3-[(4-Aminophenyl)thio]-4-(5-chloro-2-hydroxyphenyl)-6-(trifluoromethyl)-2(1H)-quinolinone]",392,10,27,–
"Cn1c(=O)c(Sc2ccc(N)cc2)c(-c2cc(Cl)ccc2O)c2cc(C(F)(F)F)ccc21 [Example 2, 3-[(4-Aminophenyl)thio]-4-(5-chloro-2-hydroxyphenyl)-1-methyl-6-(trifluoromethyl)-2(1H)-quinolinone]",144,–,7,–
"O=c1[nH]c2ccc(C(F)(F)F)cc2c(-c2cc(Cl)ccc2O)c1Sc1ncccn1 [Example 3, 4-(5-Chloro-2-hydroxy-phenyl)-3-(pyrimidin-2-ylsulfanyl)-6-trifluoromethyl-1H-quinolin-2-one]",144,–,–,302 to 303
"O=c1[nH]c2ccc(C(F)(F)F)cc2c(-c2cc(Cl)ccc2O)c1Sc1ccncc1 [Example 4, 4-(5-Chloro-2-hydroxy-phenyl)-3-(pyridin-4-ylsulfanyl)-6-trifluoromethyl-1H-quinolin-2-one]",206,17,36,257 to 260
"Cn1cnnc1Sc1c(-c2cc(Cl)ccc2O)c2cc(C(F)(F)F)ccc2[nH]c1=O [Example 5, 4-(5-Chloro-2-hydroxy-phenyl)-3-(4-methyl-4H-[1,2,4]triazol-3-ylsulfanyl)-6-trifluoromethyl-4a,8a-dihydro-1H-quinolin-2-one]",167,–,35,–
"O=c1[nH]c2ccc(C(F)(F)F)cc2c(-c2cc(Cl)ccc2O)c1Sc1ccc(O)cc1 [Example 6, 4-(5-Chloro-2-hydroxyphenyl)-3-(4-hydroxyphenylsulfanyl)-6-trifluoromethyl-1H-quinolin-2-one]",307,21,8,180 to 190
"Nc1nnc(Sc2c(-c3cc(Cl)ccc3O)c3cc(C(F)(F)F)ccc3[nH]c2=O)s1 [Example 7, 3-(5-Amino-[1,3,4]thiadiazol-2-ylsulfanyl)-4-(5-chloro-2-hydroxyphenyl)-6-trifluoromethyl-1H-quinolin-2-one]",237,40,45,260 to 270
"O=c1[nH]c2ccc(C(F)(F)F)cc2c(-c2cc(Cl)ccc2O)c1SCc1ccc(O)cc1 [Example 8, 4-(5-Chloro-2-hydroxyphenyl)-3-(4-hydroxybenzylsulfanyl)-6-trifluoromethyl-1H-quinolin-2-one]",227,–,33,206 to 208
"O=c1[nH]c2ccc(C(F)(F)F)cc2c(-c2cc(Cl)ccc2O)c1Sc1ccccc1O [Example 9, 4-(5-Chloro-2-hydroxyphenyl)-3-(2-hydroxyphenylsulfanyl)-6-trifluoromethyl-1H-quinolin-2-one]",145,–,–,290 to 292
"O=C(O)c1ccc(Sc2c(-c3cc(Cl)ccc3O)c3cc(C(F)(F)F)ccc3[nH]c2=O)cc1 [Example 10, 4-[4-(5-Chloro-2-hydroxy-phenyl)-2-oxo-6-trifluoromethyl-1,2-dihydro-quinolin-3-ylsulfanyl]-benzoic acid]",209,–,29,–
"COc1ccc(Cl)cc1-c1c(Sc2ccc(C(=O)O)cc2)c(=O)[nH]c2ccc(C(F)(F)F)cc12 [Example 11, 4-[4-(5-Chloro-2-methoxy-phenyl)-2-oxo-6-trifluoromethyl-1,2-dihydro-quinolin-3-ylsulfanyl]-benzoic acid]",177,–,–,–
